Here are results for 1 compound from US20200278355A1, “CONJUGATED PROTEINS AND USES THEREOF” (THE SCRIPPS RESEARCH INSTITUTE, priority 2017, published 2020).

In this experiment the target is T1, HA-NR0B1-WT binding to FLAG-SNW1 (Homo sapiens, UniProt P51843).
T1 construct: expressed in transfected cells; host or cells: HEK293T (pRK5-based plasmids)
In words: Modified in vitro binding assay: HA-NR0B1-WT from compound-treated HEK293T cells binding to FLAG-SNW1. The conditions noted are these: HEK293T cells expressing HA-NR0B1-WT treated with compound, lysate binding to FLAG-SNW1. It is filed as cell-based. Here is the method:
FIG. 5A-FIG. 5G show covalent ligand targeting C274 disrupts NR0B1 protein complexes. […] Percentage of NR0B1 bound to SNW1 was normalized to vehicle (DMSO). A hit compound BPK-26 is marked in red. […] HEK293T cells expressing the indicated proteins were treated with BPK-29 or vehicle (3 h) prior to treatment with BPK-29yne (30 min). Immunoprecipiated proteins were analyzed by in-gel fluorescence-scanning and immunoblotting. […] HEK293T cells expressing HA-NR0B1-WT or HA-NR0B1-C274V proteins were treated with DMSO or BPK-29, after which lysates were generated and evaluated for binding to FLAG-SNW1, as shown in (B).
FIG. 11A-FIG. 11F illustrate a covalent ligand targeting Cys274 disrupts NR0B1 protein complexes. […] See also FIG. 5C. […] Top: Structures of screening hit BPK-28 and synthesized derivatives. […] FLAG-immunoprecipitates were prepared from each lysate and subjected to proteolytic digestion, whereupon tryptic peptides harboring C274 were analyzed by LC-MS/MS. […] Immunoprecipitates were analyzed by in-gel fluorescence-scanning to assess BPK-29yne labeling or by immunoblot for FLAG-NR0B1. […] In a modified in vitro binding assay shown in FIG. 5B, HEK293T cells expressing HA-NR0B1-WT or an HA-NR0B1-C274V mutant were treated with DMSO or BPK-26 (20 μM, 3 h), after which lysates were and interaction with FLAG-SNW1 assessed. […]

T1 sequence (P51843 whole entry): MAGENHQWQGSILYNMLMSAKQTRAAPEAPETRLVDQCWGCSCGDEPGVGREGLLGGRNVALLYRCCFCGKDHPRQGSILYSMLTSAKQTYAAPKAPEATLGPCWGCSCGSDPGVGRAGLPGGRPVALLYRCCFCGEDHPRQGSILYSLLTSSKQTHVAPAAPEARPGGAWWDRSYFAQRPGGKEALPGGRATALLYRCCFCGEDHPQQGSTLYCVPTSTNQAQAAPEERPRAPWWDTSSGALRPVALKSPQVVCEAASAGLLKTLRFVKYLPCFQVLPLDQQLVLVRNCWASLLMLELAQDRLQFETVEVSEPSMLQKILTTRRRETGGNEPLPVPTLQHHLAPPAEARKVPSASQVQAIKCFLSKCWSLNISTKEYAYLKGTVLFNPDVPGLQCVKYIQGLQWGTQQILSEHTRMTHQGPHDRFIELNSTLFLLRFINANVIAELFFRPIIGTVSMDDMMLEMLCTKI

With `O=C(c1ccc(N2CCOCC2)cc1)N1CCCC(N(Cc2ccccc2)C(=O)CCl)CC1` (stereo not shown) [BPK-29, N-benzyl-2-chloro-N-(1-(4-morpholinobenzoyl)azepan-4-yl)acetamide], the “disruption of NR0B1-WT protein interactions (binding to FLAG-SNW1)” value is reported as “disrupts protein interactions for NR0B1-WT”.
